The results in this text go back to ChEMBL document CHEMBL4342494 (ACS Med Chem Lett, 2020).

For assay [1], the target named is T1, D(2) dopamine receptor (Homo sapiens, UniProt P14416). In words: Agonist activity at D2 long receptor (unknown origin) transfected in human HEK293T cells assessed as increase in cAMP accumulation incubated for 2 hrs by cAMP Glo-sensor assay. The assay is classed as functional, cell-based. (In general: Changes in cAMP serve as a functional read-out for many G protein-coupled receptors.)

The target in assay [2] is T1, D(2) dopamine receptor.
Assay [3] concerns the target T2, D(1A) dopamine receptor (Homo sapiens, UniProt P21728). Description: Agonist activity at D1R (unknown origin) transfected in human HEK293T cells assessed as increase in cAMP accumulation incubated for 2 hrs by cAMP Glo-sensor assay. The assay is classed as functional, cell-based.
The target of assay [4] is T2, D(1A) dopamine receptor. In words: Agonist activity at C-terminal RLuc8-fused D1R (unknown origin) transfected in human HEK293T cells co-expressing N-terminal Venus-tagged beta-arrestin2 assessed as increase in beta-arrestin2 recruitment measured after 5 mins in presence of coelenterazine H by BRET assay. The assay is classed as cell-based. In general terms: Recruitment of arrestin is a read-out of receptor activation apart from second messengers.

Assay [5] concerns the target T1, D(2) dopamine receptor. This is another data set of the same source.
The target of assay [6] is T2, D(1A) dopamine receptor.

T1 sequence (P14416 whole entry): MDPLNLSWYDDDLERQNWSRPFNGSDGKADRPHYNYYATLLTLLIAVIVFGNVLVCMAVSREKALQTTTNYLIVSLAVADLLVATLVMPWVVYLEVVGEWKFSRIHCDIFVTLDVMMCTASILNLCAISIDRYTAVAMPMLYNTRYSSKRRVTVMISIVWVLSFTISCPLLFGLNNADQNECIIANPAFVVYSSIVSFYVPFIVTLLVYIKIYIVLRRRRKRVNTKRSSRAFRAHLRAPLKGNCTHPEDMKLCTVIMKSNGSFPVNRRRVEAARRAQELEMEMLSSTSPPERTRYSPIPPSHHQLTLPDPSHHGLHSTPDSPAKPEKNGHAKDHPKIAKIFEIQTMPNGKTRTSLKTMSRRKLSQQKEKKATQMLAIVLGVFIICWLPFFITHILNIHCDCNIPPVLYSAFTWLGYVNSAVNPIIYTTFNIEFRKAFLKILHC
T2 sequence (P21728 whole entry, the tested form may be a part): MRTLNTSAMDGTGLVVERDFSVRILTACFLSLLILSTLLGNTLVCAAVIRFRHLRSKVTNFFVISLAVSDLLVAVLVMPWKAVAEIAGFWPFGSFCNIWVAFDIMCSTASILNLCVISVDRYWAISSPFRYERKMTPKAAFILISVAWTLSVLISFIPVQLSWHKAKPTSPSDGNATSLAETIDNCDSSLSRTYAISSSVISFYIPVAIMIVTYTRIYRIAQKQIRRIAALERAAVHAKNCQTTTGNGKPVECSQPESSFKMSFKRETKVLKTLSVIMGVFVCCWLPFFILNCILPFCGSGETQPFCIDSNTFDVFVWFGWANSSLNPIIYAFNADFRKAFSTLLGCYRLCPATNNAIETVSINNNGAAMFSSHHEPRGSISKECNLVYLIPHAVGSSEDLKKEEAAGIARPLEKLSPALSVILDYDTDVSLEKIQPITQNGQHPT

With `CC(=O)Oc1c(C(C)C)cc2c(c1OC(C)=O)-c1cccc3c1[C@@H](C2)N(C)CC3`, the EC50 is greater than 10000 nM in assay [1] (read-out: EC50); greater than 10000 nM in assay [1] (read-out: pEC50 (converted)); greater than 10000 nM in assay [2]; 951 nM in assay [3] (read-out: EC50); greater than 10000 nM in assay [4] (read-out: EC50); greater than 10000 nM in assay [4] (read-out: pEC50 (converted)).
Turning to `CN1CCc2cccc3c2[C@H]1Cc1ccc(O)c(O)c1-3`, the log(Tau/KA) in assay [5] is 2.16. In assay [6], this compound yielded a G-protein bias factor of 41.5.
As to `CCCN1CCc2cccc3c2[C@H]1Cc1ccc(O)c(O)c1-3`, the log(Tau/KA) in assay [5] is 0.85. The same compound registered a G-protein bias factor in assay [6] of 19.3.
Regarding `COc1cccc(-c2cc3c(c(OC(C)=O)c2OC(C)=O)-c2cccc4c2[C@@H](C3)N(C)CC4)c1`, the EC50 was greater than 10000 nM in assay [1] (read-out: EC50); greater than 10000 nM in assay [1] (read-out: pEC50 (converted)); 669 nM in assay [3] (read-out: EC50); 661 nM in assay [3] (read-out: pEC50 (converted)); 41.4 nM in assay [4] (read-out: EC50).
As to `CC(=O)Oc1c(Cl)cc2c(c1OC(C)=O)-c1cccc3c1[C@@H](C2)N(C)CC3`, the EC50 in assay [1] (read-out: EC50) was greater than 10000 nM; in assay [1] (read-out: pEC50 (converted)), greater than 10000 nM; in assay [2], 604 nM.
Consider `CCc1cc2c(c(OC(C)=O)c1OC(C)=O)-c1cccc3c1[C@@H](C2)N(C)CC3`, for which the EC50 in assay [3] (read-out: EC50) worked out at 1550 nM; in assay [4] (read-out: EC50), 0.38 nM.
For `CN1CCc2cccc3c2[C@H]1Cc1ccc2c(c1-3)OCO2`, the EC50 in assay [1] (read-out: EC50) is greater than 10000 nM; in assay [1] (read-out: pEC50 (converted)), greater than 10000 nM; in assay [2], 102 nM; in assay [3] (read-out: EC50) it was 112 nM; in assay [4] (read-out: EC50), greater than 10000 nM; in assay [4] (read-out: pEC50 (converted)), greater than 10000 nM.
Regarding `CC(=O)Oc1c(Br)cc2c(c1OC(C)=O)-c1cccc3c1[C@@H](C2)N(C)CC3`, the EC50 in assay [1] (read-out: EC50) was greater than 10000 nM; in assay [1] (read-out: pEC50 (converted)) it was greater than 10000 nM; in assay [2] it was 1410 nM.
Regarding `COCOc1ccc2c(c1OCOC)-c1cccc3c1[C@@H](C2)N(C)CC3`, the figures for the EC50 in assay [3] (read-out: EC50) and in assay [4] (read-out: EC50) were greater than 10000 nM and 8.45 nM, respectively.
